What was measured:
PGF synthase (PGFS) = biological target: T1, PGF synthase (PGFS) (Homo sapiens, UniProt P42330); assay: Test on PGF synthase (spectrophotometric, 340 nm, 9,10-phenanthrenequinone/β-NADPH); format: biochemical; details: IC50fs; 37° C., pH 6.5 Tris buffer, 20 μM 9,10-phenanthrenequinone, 100 μM β-NADPH
T1 construct: made in house
T1 sequence (P42330 1-323): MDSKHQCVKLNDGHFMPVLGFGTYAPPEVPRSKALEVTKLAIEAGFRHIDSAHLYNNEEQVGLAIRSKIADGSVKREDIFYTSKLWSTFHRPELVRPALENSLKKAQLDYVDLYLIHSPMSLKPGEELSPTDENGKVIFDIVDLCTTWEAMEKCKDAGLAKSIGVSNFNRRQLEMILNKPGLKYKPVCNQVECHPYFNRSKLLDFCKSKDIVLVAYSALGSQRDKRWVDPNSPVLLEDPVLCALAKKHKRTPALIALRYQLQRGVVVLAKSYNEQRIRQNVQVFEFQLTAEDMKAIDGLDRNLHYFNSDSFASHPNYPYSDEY
Experimental: The enzyme PGFS is obtained as described in document FR-A-02/05067, at a concentration of 0.5 mg/mL, as a suspension in a suitable medium, and blocked at −80° C. For the purposes of the test, this suspension is thawed and stored in ice.
In parallel, a 100 mM, pH 6.5 Tris buffer containing 20 μM of 9,10-phenanthrenequinone* (P2896, Sigma-Aldrich, L'isle D'Abeau Chesne, BP 701, 38297, Saint Quentin Fallavier) and 100 μM of β-NADPH (N1630, Sigma-Aldrich, L'isle D'Abeau Chesne, BP 701, 38297, Saint Quentin Fallavier) is prepared in a brown flask (protected from light).
*A stock solution with a titre of 1 mM is prepared in absolute ethanol and brought to 40° C.; the flask is placed in an ultrasound cuvette to facilitate the dissolution of the product.
0.950 mL of this buffer (brought to 37° C. beforehand) is introduced into the cuvette of a spectrophotometer (Perkin-Elmer, Lambda 2) thermostatically maintained at 37° C., the measuring wavelength of which is set at 340 nm. 0.05 mL of enzymatic suspension at 37° C. is introduced into the cuvette concomitantly with the recording (corresponding to a reduction in the optical density at 340 nm). The maximum reaction rate is recorded. […]

15-PGDH = biological target: T2, 15-PGDH (Homo sapiens, UniProt P15428); assay: Test on 15-PGDH (spectrophotometric, 340 nm, PGE2/β-NAD); format: biochemical; details: for Inhibition of 15-PGDH % inhibition at 50 μm: compound at 50 μm, pH 7.4
T2 construct: made in house
T2 sequence (P15428 1-266): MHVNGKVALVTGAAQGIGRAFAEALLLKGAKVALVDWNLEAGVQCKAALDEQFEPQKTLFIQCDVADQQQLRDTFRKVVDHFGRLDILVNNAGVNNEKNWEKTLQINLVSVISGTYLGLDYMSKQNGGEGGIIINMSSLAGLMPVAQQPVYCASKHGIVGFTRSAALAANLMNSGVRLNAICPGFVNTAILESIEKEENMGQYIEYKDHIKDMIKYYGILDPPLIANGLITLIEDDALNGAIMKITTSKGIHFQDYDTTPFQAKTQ
Experimental: The enzyme 15-PGDH is obtained as described in patent application FR 02/05067 filed in the name of L'Oréal, as a suspension in a medium adjusted to a concentration of 0.3 mg/mL and then blocked at −80° C. For the purposes of the test, this suspension is thawed and stored in ice.
In parallel, a 100 mM, pH 7.4 Tris buffer containing 0.1 mM of dithiothreitol (D5545, Sigma-Aldrich, L'isle D'Abeau Chesne, BP 701, 38297, Saint Quentin Fallavier), 1.5 mM of β-NAD (N6522, Sigma-Aldrich, L'isle D'Abeau Chesne, BP 701, 38297, Saint Quentin Fallavier), and 50 μM of prostaglandin E2 (P4172, Sigma-Aldrich, L'isle D'Abeau Chesne, BP 701, 38297, Saint Quentin Fallavier) is prepared.
0.965 ml of this buffer (brought to 37° C. beforehand) is introduced into the cuvette of a spectrophotometer (Perkin-Elmer, Lambda 2) thermostatically maintained at 37° C., the measuring wavelength of which is set at 340 nm. 0.035 mL of enzymatic suspension at 37° C. is introduced into the cuvette concomitantly with the recording (corresponding to an increase in the optical density at 340 nm). The maximum reaction rate is recorded.
The test values (containing the compounds (I)) are compared with the control value (without compound (I)); the results indicated represent the concentration at which the compound of formula (I) reduces the anzymatic activity of 15-PGDH by 50%, namely IC50dh.

| IC50 (PGF synthase (PGFS)) [µM] | IC50 (15-PGDH; IC50dh, 37° C., pH 7.4 Tris buffer, 50 μM prostaglandin E2, 1.5 mM β-NAD, read-out: Inhibition of 15-PGDH IC50) [µM] | Inhibition of 15-PGDH % inhibition at 50 μm (15-PGDH; 37° C.) [%] | IC50fs/IC50dh ratio (15-PGDH; selectivity: PGF synthase IC50 over 15-PGDH IC50) | Structure (SMILES) |
| --- | --- | --- | --- | --- |
| ≥ 50 | 5 | 89 | greater than 10 | O=C(CSc1nc2ccccc2s1)NC1CCCC1 [Compound 1] |
| – | – | 30 | – | CC(=O)c1ccc(C#N)c(SCC(=O)Nc2cc(Cl)cc(Cl)c2)n1 [Compound 2] |
| – | – | 26 | – | O=C(CSc1nnc2sc3ccccc3n12)Nc1ccc(Br)cc1 [Compound 3] |

Source: patent publication US20050169863A1, “2-Thioacetamide compositions for stimulating the growth of keratin fibers and/or for reducing loss thereof” (L'OREAL, priority 2003, published 2005)
